pIC50: −log10 of the molar value. Where two headings read alike, the source gives them in different places.
Test system: AMPA receptor
[1] = Table 2, suppression of AMPA-induced calcium influx into nerve cells
[2] = Table 1, primary culture of rat embryo cerebral cortex nerve cells, 2 μM AMPA, 1 μM MK-801
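Note: primary rat embryonic cortical neurons grown on an astrocyte layer in 96-well plates, used after at least 8 to 10 days in culture, Fura2-AM fluorescence ratio at 340/380 nm excitation.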

Description: Cerebral cortex was cut out from the brain of rat of gestational 18 days and treated with trypsin and DNase to disperse the cells. The cells were flown by MEM containing 10% of serum, sown in a culture bottle and astrocytes were proliferated. The astrocytes were re-dispersed by trypsin and sown in a 96-well plate. After incubation for one week, it was confirmed that the astrocytes covered all over the bottom and then the nerve cells of cerebral cortex which was dispersed by the above method were sown thereupon. After incubation for 24 hours, the medium was changed, the incubation was carried out for one week and, after that, the medium was changed to that containing 1 μM of MK-801. Nerve cells which were incubated for not shorter than 8 to 10 days were used.
Calcium influx into the cells was measured using Fura2-AM which was a calcium-sensitive fluorescent dye. It was treated in a medium containing Fura2-AM for 1 hour, incorporated into the cells, exchanged to a Tyrode solution containing 1 μM MK-801 and stimulation was carried out using 2 μM AMPA. Change in the amount of calcium flown into the cells were measured as the change in the fluorescent intensity at the exciting wave length of 340/380 nm.

SMILES	pIC50 [1]	pIC50 [2]	further results
N#Cc1ccccc1-c1cc(-c2ccccn2)cn(-c2ccc(CO)cc2)c1=O [Example 148, 3-(2-Cyanophenyl)-5-(2-pyridyl)-1-(4-hydroxymethylphenyl)-1,2-dihydropyridin-2-one]	6.10		
CC(=O)c1ccccc1-c1cc(-c2ccccn2)cn(-c2ccccc2)c1=O [Example 272, 3-(2-Acetylphenyl)-5-(2-pyridyl)-1-phenyl-1,2-dihydropyridin-2-one]	5.48		
O=c1c(-c2cc3ccccc3n2S(=O)(=O)c2ccccc2)cc(-c2ccccn2)cn1-c1ccccc1 [Example 293, 3-[(1-Benzenesulfonyl)indol-2-yl]-1-phenyl-5-(2-pyridyl)-1,2-dihydropyridin-2-one]	5.48		
O=c1c(-c2ccccc2Cl)cc(COc2ccccc2)cn1-c1ccccc1 [Example 185, 3-(2-Chlorophenyl)-5-phenoxymethyl-1-phenyl-1,2-dihydropyridin-2-one]	5.77		
N#Cc1ccccc1-c1cc(-c2ccccn2)cn(-c2ccncc2)c1=O [Example 117, 3-(2-Cyanophenyl)-5-(2-pyridyl)-1-(4-pyridyl)-1,2-dihydropyridin-2-one]		6.40	
N#Cc1ccccc1-c1cc(-c2ccccn2)cn(-c2ccc(Cl)nc2)c1=O [Example 120, 3-(2-Cyanophenyl)-5-(2-pyridyl)-1-(2-chloropyridin-5-yl)-1,2-dihydropyridin-2-one]		6.70	
CCN(CC)CCOc1cccc(-n2cc(-c3ccccn3)cc(-c3ccccc3C#N)c2=O)c1 [Example 246, 3-(2-Cyanophenyl)-1-[3-(diethylaminoethoxy)phenyl]-5-(2-pyridyl)-1,2-dihydropyridin-2-one]	5.96		
N#Cc1ccccc1-c1cc(-c2ccccn2)cn(-c2ccc([N+](=O)[O-])cc2)c1=O [Example 252, 3-(2-Cyanophenyl)-1-(4-nitrophenyl)-5-(2-pyridyl)-1,2-dihydropyridin-2-one]	6.52		
O=c1c(-c2ccccn2)cc(-c2ccccn2)cn1-c1ccccc1 [Example 62, 3-(2-Pyridyl)-5-(2-pyridyl)-1-phenyl-1,2-dihydropyridin-2-one]		5.51	
Cc1ccc(-n2cc(-c3ccccn3)cc(-c3ccccc3C#N)c2=O)cc1[N+](=O)[O-] [Example 381, 3-(2-Cyanophenyl)-5-(2-pyridyl)-1-(2-nitrotoluen-4-yl)-1,2-dihydropyridin-2-one]			pIC50 (Table 3, primary culture of rat embryo cerebral cortex nerve cells, 2 μM AMPA, 1 μM MK-801): 6.40
O=c1c(-c2ccccc2Cl)cc(-c2nc3ccccc3o2)cn1-c1ccccc1 [Example 184, 3-(2-Chlorophenyl)-5-(2-benzoxazolyl)-1-phenyl-1,2-dihydropyridin-2-one]	5.64		
CN(C)c1ccc(-c2cc(-c3ccccn3)cn(-c3ccccc3)c2=O)cc1 [Example 234, 3-(4-Dimethylaminophenyl)-1-phenyl-5-(2-pyridyl)-1,2-dihydropyridin-2-one]	6.05		
COc1cccc(-c2cc(-c3ccccn3)cn(-c3ccccc3)c2=O)c1 [Example 69, 3-(3-Methoxyphenyl)-5-(2-pyridyl)-1-phenyl-1,2-dihydropyridin-2-one]		6.05	
O=c1c(-c2cccc(O)n2)cc(-c2ccccn2)cn1-c1ccccc1 [Example 165, 3-(2-Hydroxypyridin-6-yl)-1-phenyl-5-(2-pyridyl)-1,2-dihydropyridin-2-one]	6.40		
N#Cc1ccccc1-c1cc(-c2ccccn2)cn(C2=CCCN(Cc3ccccc3)C2)c1=O [Example 180, 3-(2-Cyanophenyl)-5-(2-pyridyl)-1-(1-benzyl-1,2,3,6-tetrahydropyridin-5-yl)-1,2-dihydropyridin-2-one]	6.30		
COc1ccccc1-c1cc(-c2ccccn2)cn(-c2ccccc2)c1=O [Example 55, 3-(2-Methoxyphenyl)-5-(2-pyridyl)-1-phenyl-1,2-dihydropyridin-2-one]		6.10	
N#Cc1ccccc1-c1cc(-c2ccsc2)cn(-c2ccccc2)c1=O [Example 44, 3-(2-Cyanophenyl)-5-(thiophen-3-yl)-1-phenyl-1,2-dihydropyridin-2-one]		6.52	
